Test results taken from patent US20080275032A1, “Pyridazinone compounds” (priority 2006, published 2008).

The molecules below were run against HCV NS5B polymerase (Hepatitis C virus genotype 1b, UniProt P26663) (assay: biochemical). Details: HCV polymerase inhibition, 50 nM enzyme, 2 h at room temperature, FlashPlate [α-33P]GTP incorporation.
Experimental: NS5B Polymerase Inhibition Assay (IC50)
Compounds were tested for HCV polymerase inhibition. Assays were performed in a 96-well streptavidin-coated FlashPlate using 50 nM enzyme, 0.5 μCi of [α-^33P]GTP, 0.6 μM GTP, and 50 nM 5′biotinylated oligo (rG13)/poly rC in 20 mM Tris-HCl, pH 7.5, 5 mM MgCl2, 20 mM NaCl, 5 mM dithiothreitol, and 0.1 g/L BSA. The reaction was stopped by aspiration after 2 h at room temperature and the plate was washed several times. After washing, incorporated radioactivity was counted using a Microbeta scintillation counter.

Sequence of HCV NS5B polymerase (P26663 2420-3010): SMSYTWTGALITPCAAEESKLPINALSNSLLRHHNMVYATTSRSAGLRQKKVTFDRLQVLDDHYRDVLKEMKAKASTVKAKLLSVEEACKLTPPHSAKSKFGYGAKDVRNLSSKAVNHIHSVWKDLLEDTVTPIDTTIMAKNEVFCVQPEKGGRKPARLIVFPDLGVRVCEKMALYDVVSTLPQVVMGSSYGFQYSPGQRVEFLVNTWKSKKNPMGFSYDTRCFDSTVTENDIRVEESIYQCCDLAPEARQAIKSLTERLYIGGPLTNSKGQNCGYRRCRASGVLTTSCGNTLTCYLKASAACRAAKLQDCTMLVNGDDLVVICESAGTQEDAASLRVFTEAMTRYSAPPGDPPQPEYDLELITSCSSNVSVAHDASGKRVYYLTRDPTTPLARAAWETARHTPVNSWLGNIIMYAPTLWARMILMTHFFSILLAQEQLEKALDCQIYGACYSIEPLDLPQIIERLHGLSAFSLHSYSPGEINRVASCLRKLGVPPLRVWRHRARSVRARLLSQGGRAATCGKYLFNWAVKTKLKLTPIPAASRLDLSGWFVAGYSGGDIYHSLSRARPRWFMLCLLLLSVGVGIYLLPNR

Row | IC50 | Compound
1 | < 100 nM | CC(C)CCn1nc(-c2cc[nH]c2)c(O)c(C2=Nc3ccc(NS(C)(=O)=O)cc3S(=O)(=O)N2)c1=O [N-{3-[5-Hydroxy-2-(3-methyl-butyl)-3-oxo-6-(1H-pyrrol-3-yl)-2,3-dihydro-pyridazin-4-yl]-1,1-dioxo-1,2-dihydro-1λ^6-benzo[1,2,4]thiadiazin-7-yl}-methanesulfonamide]
2 | 100 to 1000 nM | C/C(=C\c1nn(CCC(C)C)c(=O)c(C2=NS(=O)(=O)c3cc(NS(C)(=O)=O)ccc3N2)c1O)C(F)(F)F [N-{3-[5-Hydroxy-2-(3-methyl-butyl)-3-oxo-6-(3,3,3-trifluoro-2-methyl-propenyl)-2,3-dihydro-pyridazin-4-yl]-1,1-dioxo-1,2-dihydro-1λ^6-benzo[1,2,4]thiadiazin-7-yl}-methanesulfonamide]
3 | 1000 to 10000 nM | CC(C)CCn1nc(-c2ccccc2)c(O)c(C2=Nc3ccc(N(C)S(C)(=O)=O)cc3S(=O)(=O)N2)c1=O [N-{3-[5-Hydroxy-2-(3-methyl-butyl)-3-oxo-6-phenyl-2,3-dihydro-pyridazin-4-yl]-1,1-dioxo-1,2-dihydro-1λ^6-benzo[1,2,4]thiadiazin-7-yl}-N-methyl-methanesulfonamide]
4 | < 100 nM | CC(C)CCn1nc(-c2ccccc2)c(O)c(C2=Nc3ccc(NS(C)(=O)=O)cc3S(=O)(=O)N2)c1=O [N-{3-[5-Hydroxy-2-(3-methyl-butyl)-3-oxo-6-phenyl-2,3-dihydro-pyridazin-4-yl]-1,1-dioxo-1,2-dihydro-1λ^6-benzo[1,2,4]thiadiazin-7-yl}-methanesulfonamide]
5 | < 100 nM | CC(C)CCn1nc(-c2cncs2)c(O)c(C2=NS(=O)(=O)c3cc(NS(C)(=O)=O)ccc3N2)c1=O [N-{3-[5-Hydroxy-2-(3-methyl-butyl)-3-oxo-6-thiazol-5-yl-2,3-dihydro-pyridazin-4-yl]-1,1-dioxo-1,2-dihydro-1λ^6-benzo[1,2,4]thiadiazin-7-yl}-methanesulfonamide]
6 | 1000 to 10000 nM | CC(C)CCn1nc(-c2cccs2)c(O)c(C2=Nc3ccc(N(C(C)C)S(C)(=O)=O)cc3S(=O)(=O)N2)c1=O [N-{3-[5-Hydroxy-2-(3-methyl-butyl)-3-oxo-6-thiophen-2-yl-2,3-dihydro-pyridazin-4-yl]-1,1-dioxo-1,2-dihydro-1λ^6-benzo[1,2,4]thiadiazin-7-yl}-N-isopropyl-methanesulfonamide]
7 | 1000 to 10000 nM | CC(C)CCn1nc(-c2cccs2)c(O)c(C2=NS(=O)(=O)c3cc(N(C)S(C)(=O)=O)ccc3N2C)c1=O [N-{3-[5-Hydroxy-2-(3-methyl-butyl)-3-oxo-6-thiophen-2-yl-2,3-dihydro-pyridazin-4-yl]-4-methyl-1,1-dioxo-1,4-dihydro-1λ^6-benzo[1,2,4]thiadiazin-7-yl}-N-methyl-methanesulfonamide]
8 | < 100 nM | CC(C)CCn1nc(-c2ccn(C)c2)c(O)c(C2=Nc3ccc(NS(C)(=O)=O)cc3S(=O)(=O)N2)c1=O [N-{3-[5-Hydroxy-2-(3-methyl-butyl)-6-(1-methyl-1H-pyrrol-3-yl)-3-oxo-2,3-dihydro-pyridazin-4-yl]-1,1-dioxo-1,2-dihydro-1λ^6-benzo[1,2,4]thiadiazin-7-yl}-methanesulfonamide]
9 | < 100 nM | CC(C)=Cc1nn(CCC(C)C)c(=O)c(C2=NS(=O)(=O)c3cc(NS(C)(=O)=O)ccc3N2)c1O [N-{3-[5-Hydroxy-2-(3-methyl-butyl)-6-(2-methyl-propenyl)-3-oxo-2,3-dihydro-pyridazin-4-yl]-1,1-dioxo-1,2-dihydro-1λ^6-benzo[1,2,4]thiadiazin-7-yl}-methanesulfonamide]
10 | < 100 nM | CCC(C)CCn1nc(-c2cccs2)c(O)c(C2=NS(=O)(=O)c3cc(NS(C)(=O)=O)ccc3N2)c1=O (stereo not drawn) [N-{3-[5-Hydroxy-2-(3-methyl-pentyl)-3-oxo-6-thiophen-2-yl-2,3-dihydro-pyridazin-4-yl]-1,1-dioxo-1,2-dihydro-1λ^6-benzo[1,2,4]thiadiazin-7-yl}-methanesulfonamide]
11 | < 100 nM | CN(c1ccc2c(c1)S(=O)(=O)NC(c1c(O)c(-c3cccs3)nn(CC3(C(F)(F)F)CC3)c1=O)=N2)S(C)(=O)=O [N-{3-[5-Hydroxy-3-oxo-6-thiophen-2-yl-2-(1-trifluoromethyl-cyclopropylmethyl)-2,3-dihydro-pyridazin-4-yl]-1,1-dioxo-1,2-dihydro-1λ^6-benzo[1,2,4]thiadiazin-7-yl}-N-methyl-methanesulfonamide]
12 | < 100 nM | CS(=O)(=O)Nc1ccc2c(c1)S(=O)(=O)N=C(c1c(O)c(-c3cccs3)nn(CC3(C(F)(F)F)CC3)c1=O)N2 [N-{3-[5-Hydroxy-3-oxo-6-thiophen-2-yl-2-(1-trifluoromethyl-cyclopropylmethyl)-2,3-dihydro-pyridazin-4-yl]-1,1-dioxo-1,2-dihydro-1λ^6-benzo[1,2,4]thiadiazin-7-yl}-methanesulfonamide]
13 | 100 to 1000 nM | CCC(C)(C)c1nn(CCC(C)C)c(=O)c(C2=NS(=O)(=O)c3cc(NS(C)(=O)=O)ccc3N2)c1O [N-{3-[6-(1,1-Dimethyl-propyl)-5-hydroxy-2-(3-methyl-butyl)-3-oxo-2,3-dihydro-pyridazin-4-yl]-1,1-dioxo-1,2-dihydro-1λ^6-benzo[1,2,4]thiadiazin-7-yl}-methanesulfonamide]
14 | 100 to 1000 nM | CC(C)CCn1nc(CCC2OCCCO2)c(O)c(C2=Nc3ccc(NS(C)(=O)=O)cc3S(=O)(=O)N2)c1=O [N-{3-[6-(2-[1,3]Dioxan-2-yl-ethyl)-5-hydroxy-2-(3-methyl-butyl)-3-oxo-2,3-dihydro-pyridazin-4-yl]-1,1-dioxo-1,2-dihydro-1λ^6-benzo[1,2,4]thiadiazin-7-yl}-methanesulfonamide]
15 | 100 to 1000 nM | CC(C)CCn1nc(CC2CCC2)c(O)c(C2=NS(=O)(=O)c3cc(NS(C)(=O)=O)ccc3N2)c1=O [N-{3-[6-Cyclobutylmethyl-5-hydroxy-2-(3-methyl-butyl)-3-oxo-2,3-dihydro-pyridazin-4-yl]-1,1-dioxo-1,2-dihydro-1λ^6-bnezo[1,2,4]thiadiazin-7-yl}-methanesulfonamide]
16 | < 100 nM | CC(C)CCn1nc(C2=CCCC2)c(O)c(C2=NS(=O)(=O)c3cc(NS(C)(=O)=O)ccc3N2)c1=O [N-{3-[6-Cyclopent-1-enyl-5-hydroxy-2-(3-methyl-butyl)-3-oxo-2,3-dihydro-pyridazin-4-yl]-1,1-dioxo-1,2-dihydro-1λ^6-benzo[1,2,4]thiadiazin-7-yl}-methanesulfonamide]
17 | 100 to 1000 nM | CC(C)CCn1nc(CC2=CCCC2)c(O)c(C2=NS(=O)(=O)c3cc(NS(C)(=O)=O)ccc3N2)c1=O [N-{3-[6-Cyclopent-1-enylmethyl-5-hydroxy-2-(3-methyl-butyl)-3-oxo-2,3-dihydro-pyridazin-4-yl]-1,1-dioxo-1,2-dihydro-1λ^6-benzo[1,2,4]thiadiazin-7-yl}-methanesulfonamide]
18 | 100 to 1000 nM | CC(C)(C)c1nn(Cc2ccc(F)c(Cl)c2)c(=O)c(C2=Nc3ccc(NS(C)(=O)=O)cc3S(=O)(=O)N2)c1O [N-{3-[6-tert-Butyl-2-(3-chloro-4-fluoro-benzyl)-5-hydroxy-3-oxo-2,3-dihydro-pyridazin-4-yl]-1,1-dioxo-1,2-dihydro-1λ^6-benzo[1,2,4]thiadiazin-7-yl}-methanesulfonamide]
19 | < 100 nM | CCCS(=O)(=O)Nc1ccc2c(c1)S(=O)(=O)NC(c1c(O)c(-c3cncs3)nn(CCC(C)C)c1=O)=N2 [Propane-1-sulfonic acid {3-[5-hydroxy-2-(3-methyl-butyl)-3-oxo-6-thiazol-5-yl-2,3-dihydro-pyridazin-4-yl]-1,1-dioxo-1,2-dihydro-1λ^6-benzo[1,2,4]thiadiazin-7-yl}-amide]
20 | < 100 nM | CCCS(=O)(=O)Nc1ccc2c(c1)S(=O)(=O)N=C(c1c(O)c(-c3cccs3)nn(CCC(C)C)c1=O)N2 [Propane-1-sulfonic acid {3-[5-hydroxy-2-(3-methyl-butyl)-3-oxo-6-thiophen-2-yl-2,3-dihydro-pyridazin-4-yl]-1,1-dioxo-1,2-dihydro-1λ^6-benzo[1,2,4]thiadiazin-7-yl}-amide]
21 | < 100 nM | CC(C)S(=O)(=O)Nc1ccc2c(c1)S(=O)(=O)NC(c1c(O)c(-c3cccs3)nn(CCC3CC3)c1=O)=N2 [Propane-2-sulfonic acid {3-[2-(2-cyclopropyl-ethyl)-5-hydroxy-3-oxo-6-thiophen-2-yl-2,3-dihydro-pyridazin-4-yl]-1,1-dioxo-1,2-dihydro-1λ^6-benzo[1,2,4]thiadiazin-7-yl}-amide]
22 | < 100 nM | CC(C)CCn1nc(-c2cncs2)c(O)c(C2=Nc3ccc(NS(=O)(=O)C(C)C)cc3S(=O)(=O)N2)c1=O [Propane-2-sulfonic acid {3-[5-hydroxy-2-(3-methyl-butyl)-3-oxo-6-thiazol-5-yl-2,3-dihydro-pyridazin-4-yl]-1,1-dioxo-1,2-dihydro-1λ^6-benzo[1,2,4]thiadiazin-7-yl}-amide]
23 | < 100 nM | CC(C)CCn1nc(-c2cccs2)c(O)c(C2=NS(=O)(=O)c3cc(NS(=O)(=O)C(C)C)ccc3N2)c1=O [Propane-2-sulfonic acid {3-[5-hydroxy-2-(3-methyl-butyl)-3-oxo-6-thiophen-2-yl-2,3-dihydro-pyridazin-4-yl]-1,1-dioxo-1,2-dihydro-1λ^6-benzo[1,2,4]thiadiazin-7-yl}-amide]
24 | 1000 to 10000 nM | CC(C)CCn1nc(-c2cccs2)c(O)c(C2=Nc3ccc(NC(=O)OC(C)C)cc3S(=O)(=O)N2)c1=O [{3-[5-Hydroxy-2-(3-methyl-butyl)-3-oxo-6-thiophen-2-yl-2,3-dihydro-pyridazin-4-yl]-1,1-dioxo-1,2-dihydro-1λ^6-benzo[1,2,4]thiadiazin-7-yl}-carbamic acid isopropyl ester]
